PubChem BioAssay AID248 (DTP/NCI, 2004)
Values joined by “and” are separate entries in the source; they are usually repeats but may differ in a detail not shown here. Identical values can stand only once. Inconclusive results and toxic doses are left out. No stated cut-off is given here; in the data, active means T/C of 150% or more; inactive means T/C below 125%.

Tested on: L1210 leukemia ip in BDF1 mice, survival T/C
Test: NCI In Vivo Anticancer Drug Screen. Data for tumor model L1210 Leukemia (intraperitoneal) in B6D2F1 (BDF1) mice
Settings: endpoint: mean survival time, higher = longer survival
Procedure, shortened: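 Value reflects the ratio of survival in compound-treated mice to survival in vehicle-treated controls, with both groups carrying the same transplanted tumor.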

[1] = dose: 100.0 mg/kg/injection, schedule: Q04DX003 (ip), vehicle: saline
[2] = dose: 200.0 mg/kg/injection, schedule: Q04DX003 (ip), vehicle: saline
[3] = dose: 400.0 mg/kg/injection, schedule: Q04DX003 (ip), vehicle: saline
[4] = dose: 100.0 mg/kg/injection, schedule: Q01DX001 (ip), vehicle: Klucel (hydroxypropylcellulose) (HPC)
[5] = dose: 200.0 mg/kg/injection, schedule: Q01DX001 (ip), vehicle: Klucel (hydroxypropylcellulose) (HPC)
[6] = dose: 100.0 mg/kg/injection, schedule: Q01DX009 (ip), vehicle: Klucel (hydroxypropylcellulose) (HPC)
[7] = dose: 200.0 mg/kg/injection, schedule: Q01DX009 (ip), vehicle: Klucel (hydroxypropylcellulose) (HPC)
[8] = dose: 400.0 mg/kg/injection, schedule: Q01DX009 (ip), vehicle: Klucel (hydroxypropylcellulose) (HPC)
[9] = dose: 50.0 mg/kg/injection, schedule: Q04DX002 (ip), vehicle: Klucel (hydroxypropylcellulose) (HPC)
[10] = dose: 100.0 mg/kg/injection, schedule: Q04DX003 (ip), vehicle: saline with Tween-80
[11] = dose: 200.0 mg/kg/injection, schedule: Q04DX003 (ip), vehicle: saline with Tween-80
[12] = dose: 400.0 mg/kg/injection, schedule: Q04DX003 (ip), vehicle: saline with Tween-80
[13] = dose: 100.0 mg/kg/injection, schedule: Q01DX001 (ip), vehicle: saline
[14] = dose: 200.0 mg/kg/injection, schedule: Q01DX001 (ip), vehicle: saline
[15] = dose: 100.0 mg/kg/injection, schedule: Q04DX003 (ip), vehicle: Klucel (hydroxypropylcellulose) (HPC)
[16] = dose: 200.0 mg/kg/injection, schedule: Q04DX003 (ip), vehicle: Klucel (hydroxypropylcellulose) (HPC)
[17] = dose: 400.0 mg/kg/injection, schedule: Q04DX003 (ip), vehicle: Klucel (hydroxypropylcellulose) (HPC)

Measured: T/C

NC1=NC(Cc2ccccc2)N(c2ccc(Cl)cc2)C(N)=N1 (stereo unspecified)
inactive: dose: 14.0 mg/kg/injection, schedule: Q01DX009 (ip), vehicle: steriod suspending solution 98 % of control | dose: 24.0 mg/kg/injection, schedule: Q01DX009 (ip), vehicle: steriod suspending solution 98 % of control | dose: 39.0 mg/kg/injection, schedule: Q01DX009 (ip), vehicle: steriod suspending solution 98 % of control | dose: 65.0 mg/kg/injection, schedule: Q01DX009 (ip), vehicle: steriod suspending solution 96 % of control

BrCC(Br)C(Br)CBr (stereo unspecified)
inactive: dose: 100.0 mg/kg/injection, schedule: Q01DX009 (ip), vehicle: saline 93 % of control | [1] 113 % of control | dose: 200.0 mg/kg/injection, schedule: Q01DX009 (ip), vehicle: saline 97 % of control | [2] 108 % of control | dose: 400.0 mg/kg/injection, schedule: Q01DX009 (ip), vehicle: saline 93 % of control | [3] 98 % of control

CC12CCC3C(C1)C(C(=O)O2)C(=O)OC3(C)C (stereo unspecified)
inactive: dose: 75.0 mg/kg/injection, schedule: Q01DX009 (ip), vehicle: Klucel (hydroxypropylcellulose) (HPC) 99 % of control | dose: 150.0 mg/kg/injection, schedule: Q01DX009 (ip), vehicle: Klucel (hydroxypropylcellulose) (HPC) 101 % of control

COc1ccccc1-n1c(O)c(N=Nc2ccc(C)cc2)c(=O)n(-c2ccc(Cl)cc2)c1=S
inactive: [4] 106 % of control | [5] 100 % of control

O=C(Nc1cccc(C(F)(F)F)c1)Nc1cccc2ccc(O)cc12
inactive: [6] 107 % of control | [7] 106 % of control | [8] 98 % of control

O=C(O)C1CSC(c2ccccc2)N1 (stereo unspecified)
inactive: dose: 100.0 mg/kg/injection, schedule: Q01DX001 (ip), vehicle: other 105 % of control | dose: 176.0 mg/kg/injection, schedule: Q01DX001 (ip), vehicle: other 109 % of control and 91 % of control | dose: 200.0 mg/kg/injection, schedule: Q01DX001 (ip), vehicle: other 102 % of control | dose: 267.0 mg/kg/injection, schedule: Q01DX001 (ip), vehicle: other 96 % of control and 90 % of control | dose: 600.0 mg/kg/injection, schedule: Q01DX001 (ip), vehicle: other 101 % of control and 90 % of control

CCOP(=O)(/C=C/c1ccccc1)OCC
inactive: [1] 109 % of control | [2] 98 % of control | [3] 87 % of control

CCN(CC)CCNCC(Cc1ccccc1)c1ccccc1 (stereo unspecified)
inactive: dose: 100.0 mg/kg/injection, schedule: Q04DX002 (ip), vehicle: saline 99 % of control | dose: 200.0 mg/kg/injection, schedule: Q04DX002 (ip), vehicle: saline 105 % of control

O=C(O)c1ccccc1N=CC(=O)c1c2ccccc2cc2ccccc12
inactive: dose: 12.5 mg/kg/injection, schedule: Q04DX002 (ip), vehicle: Klucel (hydroxypropylcellulose) (HPC) 105 % of control | dose: 25.0 mg/kg/injection, schedule: Q04DX002 (ip), vehicle: Klucel (hydroxypropylcellulose) (HPC) 105 % of control | [9] 102 % of control

CCOC(=O)NC12c3ccccc3C(c3ccccc31)C(C(=O)O)C2C(=O)O (stereo unspecified)
inactive: dose: 100.0 mg/kg/injection, schedule: Q04DX003 (ip), vehicle: saline sonified 90 % of control | dose: 200.0 mg/kg/injection, schedule: Q04DX003 (ip), vehicle: saline sonified 119 % of control | dose: 400.0 mg/kg/injection, schedule: Q04DX003 (ip), vehicle: saline sonified 90 % of control

O=C(c1ccccc1)C1OC1c1ccc([N+](=O)[O-])cc1 (stereo unspecified)
inactive: dose: 100.0 mg/kg/injection, schedule: Q01DX001 (ip), vehicle: saline with Tween-80 91 % of control | [10] 100 % of control | dose: 200.0 mg/kg/injection, schedule: Q01DX001 (ip), vehicle: saline with Tween-80 88 % of control | [11] 103 % of control | dose: 400.0 mg/kg/injection, schedule: Q01DX001 (ip), vehicle: saline with Tween-80 88 % of control | [12] 100 % of control

CC1COCCCCCC(=O)C1 (stereo unspecified)
inactive: [13] 91 % of control | [14] 107 % of control | dose: 400.0 mg/kg/injection, schedule: Q01DX001 (ip), vehicle: saline 107 % of control

Cc1ccc2ccccc2c1CC(=O)O
inactive: [6] 101 % of control | [15] 112 % of control | [7] 95 % of control | [16] 96 % of control | [8] 117 % of control | [17] 96 % of control

NC(=S)N/N=C/c1c(Cl)n(-c2ccccc2)c2ccccc12
inactive: [9] 87 % of control | dose: 100.0 mg/kg/injection, schedule: Q04DX002 (ip), vehicle: Klucel (hydroxypropylcellulose) (HPC) 87 % of control | dose: 200.0 mg/kg/injection, schedule: Q04DX002 (ip), vehicle: Klucel (hydroxypropylcellulose) (HPC) 93 % of control

CC1(C)N=C(c2ccccc2)C2(c3ccccc3)N1C2(C)C (stereo unspecified)
inactive: dose: 6.0 mg/kg/injection, schedule: Q01DX001 (ip), vehicle: Klucel (hydroxypropylcellulose) (HPC) 92 % of control | dose: 12.0 mg/kg/injection, schedule: Q01DX001 (ip), vehicle: Klucel (hydroxypropylcellulose) (HPC) 101 % of control | dose: 25.0 mg/kg/injection, schedule: Q01DX001 (ip), vehicle: Klucel (hydroxypropylcellulose) (HPC) 101 % of control

Cc1nc(C#N)c(N)o1
inactive: dose: 5.0 mg/kg/injection, schedule: Q01DX001 (ip), vehicle: saline 103 % of control | dose: 10.0 mg/kg/injection, schedule: Q01DX001 (ip), vehicle: saline 103 % of control | dose: 20.0 mg/kg/injection, schedule: Q01DX001 (ip), vehicle: saline 98 % of control

CCC(C)c1c(N)nc(N)[nH]c1=O (stereo unspecified)
inactive: [15] 94 % of control | [16] 106 % of control | [17] 110 % of control

CCc1c(Nc2ccc(C)c(C)c2)[nH]c(N)nc1=S
inactive: dose: 100.0 mg/kg/injection, schedule: Q01DX Z (ip), vehicle: methylcellulose (MC) 87 % of control | dose: 200.0 mg/kg/injection, schedule: Q01DX Z (ip), vehicle: methylcellulose (MC) 109 % of control

COc1cc(C)ccc1C1=CCCC1
inactive: dose: 37.5 mg/kg/injection, schedule: Q01DX009 (ip), vehicle: saline 116 % of control | dose: 75.0 mg/kg/injection, schedule: Q01DX001 (ip), vehicle: acetone 102 % of control | dose: 75.0 mg/kg/injection, schedule: Q01DX009 (ip), vehicle: saline 111 % of control | dose: 150.0 mg/kg/injection, schedule: Q01DX001 (ip), vehicle: acetone 91 % of control | dose: 150.0 mg/kg/injection, schedule: Q01DX009 (ip), vehicle: saline 106 % of control | dose: 225.0 mg/kg/injection, schedule: Q01DX009 (ip), vehicle: acetone 86 % of control | dose: 300.0 mg/kg/injection, schedule: Q01DX001 (ip), vehicle: acetone 89 % of control

COC(=O)c1ccccc1N(C)C(=O)c1cc(OC)c(OC)c(OC)c1
inactive: dose: 100.0 mg/kg/injection, schedule: Q04DX002 (ip), vehicle: saline with Tween-80 108 % of control | dose: 200.0 mg/kg/injection, schedule: Q04DX002 (ip), vehicle: saline with Tween-80 94 % of control | dose: 400.0 mg/kg/injection, schedule: Q04DX002 (ip), vehicle: saline with Tween-80 91 % of control

Cc1cc(C)c2cc(C=O)cc-2c(C)c1
inactive: [10] 103 % of control | [11] 94 % of control | [12] 93 % of control

Cc1cc(Br)ccc1OCC(=O)O
inactive: [15] 96 % of control | [16] 93 % of control | [17] 98 % of control

CCC1C(=O)OCc2c1cc1n(c2=O)CCC1 (stereo unspecified)
inactive: dose: 25.0 mg/kg/injection, schedule: Q01DX001 (ip), vehicle: saline 113 % of control | dose: 50.0 mg/kg/injection, schedule: Q01DX001 (ip), vehicle: saline 104 % of control | [13] 104 % of control | [14] 115 % of control

C/C(=C/c1c(C)cc(C)c(NC(=O)c2ccc([N+](=O)[O-])cc2)c1C)CBr
inactive: [4] 93 % of control | [15] 97 % of control | [5] 102 % of control | [16] 92 % of control | dose: 400.0 mg/kg/injection, schedule: Q01DX001 (ip), vehicle: Klucel (hydroxypropylcellulose) (HPC) 96 % of control | [17] 92 % of control

CN(C)CCOC(=O)C1C2CC3OC(=O)C1C3C2 (stereo unspecified)
inactive: [1] 96 % of control | [2] 104 % of control | [3] 104 % of control
